Measured values from patent US20220332758A1, “PEPTIDE-BASED COMPOSITIONS AND METHODS FOR TREATING ALZHEIMER'S DISEASE” (Board of Regents, The Universityof Texas System, priority 2019, published 2022).
Entries after “also recorded” stand apart in the source; their conditions may differ.

Target: T1, latent 20S core proteasome, PGPH peptidase (Homo sapiens, UniProt P25787+P60900)
T1 construct: purified from erythrocytes; purchased Boston Biochem, Inc. or Enzo Life Sciences, Inc; host or cells: human erythrocytes
Assay: Post glutamyl peptide hydrolyzing (PGPH) peptidase activity of the core proteasome
Format: biochemical
Protocol: Determination of Proteasome Activity. Human housekeeping core (20S) proteasome purified from erythrocytes was purchased from Boston Biochem, Inc. (Cambridge, Mass.) or from Enzo Life Sciences, Inc. (Farmingdale, N.Y.). Multiple batches of the proteasomes were used and performed reproducibly. The stock proteasome was diluted to 0.2 mg/mL working solution in “dilution buffer” (50 mM Tris/HCl, pH 8, 20% glycerol). The following model peptide substrates, releasing fluorescent 7-amino-4-methylcoumarin (AMC) reporter group after cleavage, were used: succinyl-LeuLeuValTyr-AMC (SEQ ID NO: 14) (for the ChT-L peptidase; SucLLVY-AMC; Bachem Bioscience Inc., Philadelphia, Pa.), butoxycarbonyl-LeuArgArg-AMC (T-L; Bachem Bioscience Inc., Philadelphia, Pa.) and carbobenzoxy-LeuLeuGlu-AMC (PGPH; Enzo Life Sciences Inc., Farmingdale, N.Y.). […] After mixing, the plate was transferred to a Fluoroskan Ascent plate reader (Thermo Fisher Scientific Inc., Waltham, Mass.) for 1 h (37° C.), with fluorescence readouts once per minute. […] The reaction rates were calculated from a linear segment of kinetic curves constructed from measurements in 1-min intervals. Reaction rates were calculated using a linear fit performed with the Slope Analyser and Enzyme Kinetics applications launched within Origin Pro 2019 (OriginLab Corporation, Northampton, Mass.). […]

## N=C(N)NCCCC(NC(=O)CN)C(=O)NC(CCCCN)C(=O)NC(CCCCN)C(=O)NC(CCCNC(=N)N)C(=O)NC(CCCNC(=N)N)C(=O)NC(CCC(N)=O)C(=O)N1Cc2ccccc2C[C@H]1C(=O)N1C(C(=O)NC(CCCNC(N)N)C(=O)N2CCCC2C(=O)NC(CO)C(=O)O)CC2CCCCC21 (some centres unmarked) [(5), GRKKRRQ-TOD-RPS]
  effect on PGPH activity: weak inhibitory effects; also recorded: did not seem to significantly affect

## NCCCCC(N)C(=O)NC(CCCCN)C(=O)NC(CCCCN)C(=O)Nc1cc(NC(=O)C(CCCCN)NC(=O)C(CCCCN)NC(=O)C(N)CCCCN)cc(C(=O)NC(CCCCN)C(=O)NC(CCCCN)C(=O)NC(CCCCN)C(=O)O)c1 (centres unmarked) [(8)]
  effect on PGPH activity: weak inhibitory effects; also recorded: did not seem to significantly affect
